Test results taken from US11426473B2, “Nitrogen-containing compound or salt thereof, or metal complex thereof” (FUJIFILM Corporation, priority 2013, dated 2022).
Where a name gives a salt, the structure may show the parent alone. Read-outs that look alike come from different tables or passages of the source.

How the values were obtained:
Integrin αvβ3 = biological target: T1, Integrin αvβ3 (Homo sapiens, UniProt P05106+P06756); assay: Integrin αvβ3 binding affinity test
T1 construct: purchased Chemicon International, Inc
T1 sequence (P06756 31-889 limits assumed): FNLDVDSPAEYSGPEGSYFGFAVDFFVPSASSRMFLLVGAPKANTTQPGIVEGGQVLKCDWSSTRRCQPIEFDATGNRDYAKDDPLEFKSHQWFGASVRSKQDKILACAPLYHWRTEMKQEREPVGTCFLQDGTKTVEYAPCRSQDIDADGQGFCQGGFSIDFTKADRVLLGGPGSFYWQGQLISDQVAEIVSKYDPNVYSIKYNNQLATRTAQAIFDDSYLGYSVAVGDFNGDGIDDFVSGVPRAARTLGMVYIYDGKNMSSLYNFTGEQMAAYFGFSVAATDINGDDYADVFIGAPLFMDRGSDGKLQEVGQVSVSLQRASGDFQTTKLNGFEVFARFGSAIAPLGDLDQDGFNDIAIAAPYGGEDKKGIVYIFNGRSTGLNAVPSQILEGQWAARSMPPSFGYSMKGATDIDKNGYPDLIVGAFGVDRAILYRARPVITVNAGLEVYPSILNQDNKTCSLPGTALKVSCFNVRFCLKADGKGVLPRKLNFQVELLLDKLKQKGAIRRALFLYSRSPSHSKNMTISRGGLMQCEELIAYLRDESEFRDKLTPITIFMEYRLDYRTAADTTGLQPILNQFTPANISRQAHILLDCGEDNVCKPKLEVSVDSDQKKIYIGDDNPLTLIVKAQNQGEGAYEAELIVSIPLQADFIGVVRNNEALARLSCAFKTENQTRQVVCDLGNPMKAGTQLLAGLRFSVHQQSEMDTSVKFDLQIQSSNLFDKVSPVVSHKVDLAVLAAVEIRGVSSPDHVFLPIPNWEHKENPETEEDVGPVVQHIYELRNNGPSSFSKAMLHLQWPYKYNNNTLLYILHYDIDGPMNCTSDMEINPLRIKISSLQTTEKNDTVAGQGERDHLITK
T1 sequence (P06756 891-1048 partner limits assumed): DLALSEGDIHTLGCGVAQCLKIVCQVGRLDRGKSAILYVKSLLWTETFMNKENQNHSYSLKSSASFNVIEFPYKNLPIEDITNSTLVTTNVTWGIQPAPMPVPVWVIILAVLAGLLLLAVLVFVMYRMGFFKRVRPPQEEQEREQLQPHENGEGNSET
T1 sequence (P05106 27-788): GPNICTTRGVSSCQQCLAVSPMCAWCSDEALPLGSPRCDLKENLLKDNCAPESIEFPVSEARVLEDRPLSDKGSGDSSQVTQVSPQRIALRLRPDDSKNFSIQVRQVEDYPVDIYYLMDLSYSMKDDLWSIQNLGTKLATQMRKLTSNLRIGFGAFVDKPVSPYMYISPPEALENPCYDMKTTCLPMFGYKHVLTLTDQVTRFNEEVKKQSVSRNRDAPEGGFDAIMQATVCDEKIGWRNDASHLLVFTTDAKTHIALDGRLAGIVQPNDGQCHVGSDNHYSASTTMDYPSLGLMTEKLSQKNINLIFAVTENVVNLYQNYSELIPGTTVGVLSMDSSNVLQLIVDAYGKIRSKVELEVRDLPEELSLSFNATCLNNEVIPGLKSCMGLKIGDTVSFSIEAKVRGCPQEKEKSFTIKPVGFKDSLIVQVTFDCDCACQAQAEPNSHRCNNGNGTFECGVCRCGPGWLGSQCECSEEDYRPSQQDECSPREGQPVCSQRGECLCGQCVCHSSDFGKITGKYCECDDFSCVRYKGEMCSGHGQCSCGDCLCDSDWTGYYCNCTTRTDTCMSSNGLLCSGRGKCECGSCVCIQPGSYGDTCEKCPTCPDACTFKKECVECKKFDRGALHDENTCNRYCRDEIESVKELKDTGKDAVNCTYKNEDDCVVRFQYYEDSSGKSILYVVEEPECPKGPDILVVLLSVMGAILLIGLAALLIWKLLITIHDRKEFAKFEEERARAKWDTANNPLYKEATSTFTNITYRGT
Description: (§1) […] αvβ3 (Chemicon International, Inc.) was immobilized on each well of a 96-well plate (Corning Inc.). Each well was blocked with a 1% Block Ace (DS Pharma Biomedical Co., Ltd) solution and then washed with T-PBS (PBS containing 0.05% Tween 20). Evaluation compound solutions having a 2-fold concentration (10 concentrations of 3.16-fold dilutions from 0.3 μmol/L, buffer (20 mM Tris-HCl pH 7.5, 150 mM NaCl, 1 mM CaCl2, 1 mM MgCl2, and 1 mM MnCl2)) and a 4 μg/mL biotinylated vitronectin solution (vitronectin (Upstate Biotechnology Inc.) was labeled with EZ-Link Sulfo-NHS-Biotinylation Kit (Pierce/Thermo Fisher Scientific Inc.) and then concentration-adjusted) were each added at 50 μL/well, and the plate was shaken at room temperature for 2 hours. After washing with T-PBS, a 0.2 μg/mL avidin peroxidase (Pierce/Thermo Fisher Scientific Inc.) solution was added thereto, and the plate was shaken at room temperature for 1 hour. After washing with T-PBS, color was developed by an o-phenylenediamine (Sigma-Aldrich Inc.) solution (the reaction was terminated by the addition of 4 mol/L sulfuric acid), and the absorbance was measured (490 nm, Reference: 595 nm). The IC50 value was calculated using XLfit 3.0 (ID Business Solutions Ltd.). RGDfV (Bachem AG) was measured in duplicate as a QC sample for each plate.

Integrin αvβ5 = biological target: T2, Integrin αvβ5 (Homo sapiens, UniProt P06756+P18084); assay: Integrin αvβ5 binding affinity test
T2 construct: purchased Chemicon International, Inc
T2 sequence (P06756 31-889 limits assumed): as the sequence (P06756 31-889 limits assumed) above
T2 sequence (P06756 891-1048 partner limits assumed): as the sequence (P06756 891-1048 partner limits assumed) above
T2 sequence (P18084 24-799): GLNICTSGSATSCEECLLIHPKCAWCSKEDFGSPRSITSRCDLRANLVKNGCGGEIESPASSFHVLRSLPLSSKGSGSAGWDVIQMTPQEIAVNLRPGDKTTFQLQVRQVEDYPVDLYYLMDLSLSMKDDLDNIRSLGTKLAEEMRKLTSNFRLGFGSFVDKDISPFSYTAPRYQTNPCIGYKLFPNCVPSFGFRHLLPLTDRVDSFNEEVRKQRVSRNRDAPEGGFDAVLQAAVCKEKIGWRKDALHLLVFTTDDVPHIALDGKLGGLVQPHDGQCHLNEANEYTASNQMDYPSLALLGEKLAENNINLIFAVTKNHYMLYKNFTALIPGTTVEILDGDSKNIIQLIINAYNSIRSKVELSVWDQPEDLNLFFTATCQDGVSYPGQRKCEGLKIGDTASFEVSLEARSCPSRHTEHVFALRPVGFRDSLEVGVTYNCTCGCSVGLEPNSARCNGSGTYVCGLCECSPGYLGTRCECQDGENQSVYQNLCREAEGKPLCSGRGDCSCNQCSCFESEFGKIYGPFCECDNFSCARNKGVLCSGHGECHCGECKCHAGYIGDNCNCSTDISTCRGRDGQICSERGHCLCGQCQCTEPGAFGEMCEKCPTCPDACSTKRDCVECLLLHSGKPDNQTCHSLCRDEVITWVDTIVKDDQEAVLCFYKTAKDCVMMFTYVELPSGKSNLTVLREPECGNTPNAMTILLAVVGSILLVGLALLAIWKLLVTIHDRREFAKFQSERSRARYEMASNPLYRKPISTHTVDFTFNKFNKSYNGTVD
Description: as §1, with “αvβ5” for “αvβ3”, “PBST (10 mM Na2HPO4 pH 7.5, 150 mM NaCl, and 0.01%” for “T-PBS (PBS containing 0.05%”, “PBST,” for “T-PBS,”

[1] = system: U87MG cells subcutaneous tumor; assay: Treatment experiment of subcutaneously U87MG-transplanted model using [90Y]-(A8); assay type: in vivo, mouse; conditions: 1 dose; for Rate of inhibition: 12 days after administration, above 100% indicated as 100%; for Tumor volume 12 days after administration / Tumor volume At start of administration: n 10, Mean + SD; for Tumor volume At start of administration: baseline; for The number of individuals having tumor regression: of n 10
Description: (§2) U87MG cells were subcutaneously transplanted at 1×10^7 cells/mouse to the right flank of Balb/c Slc-nu/nu (SLC Japan, Inc., male, 6 weeks old). After 2 weeks, mice whose tumors became 100 to 500 mm^3 were grouped. Phosphate-buffered saline (PBS) or the radiolabeled compound [90Y]-(P2) was administered to the tail veins of the mice, and their tumor volumes were measured. When the tumor volumes of the mice in the PBS group exceeded 2,000 mm^3, which is a humanistic endpoint, the antitumor effect was evaluated. The evaluation values were the rate of inhibition of tumor growth ((1−(Average tumor volume of the compound administration group−Average tumor volume of the compound administration group before administration)/(Average tumor volume of the PBS group−Average tumor volume of the PBS group before administration))×100 (provided that the rate of inhibition exceeding 100% was indicated as 100%)) and the number of individuals having a tumor volume equal to or smaller than that at the start of the experiment (the number of individuals having tumor regression).
U87MG cells were subcutaneously transplanted at 1×10^7 cells/mouse to the right flank of Balb/cAJcl-nu/nu (CLEA Japan, Inc., male, 6 weeks old). After 2 weeks, mice whose tumors became 100 to 500 mm^3 were grouped. Phosphate-buffered saline (PBS) or the radiolabeled compound [^90Y]-(A8) was administered to the tail veins of the mice, and their tumor volumes were measured. The evaluation values were calculated in the same way as in Test Example 8 to evaluate the antitumor effect.

[2] = system: T98G cell (human glioblastoma) subcutaneous tumor; assay: Treatment experiment of subcutaneously T98G-transplanted model using [90Y]-(A8); assay type: in vivo, mouse; conditions: Dose 11.1 MBa, 1 dose
Description: as §2
A mixture of a T98G cell suspension (human glioblastoma, 1×10^7 cells) and Matrigel (Becton, Dickinson and Company) in equal amounts was subcutaneously transplanted to the right flank of Balb/cAJcl-nu/nu (CLEA Japan, Inc., female, 6 weeks old). After 90 days, the mice were grouped when their tumors BECAME 100 to 400 mm^3. Phosphate-buffered saline (PBS) or the radiolabeled compound [^90Y]-(A8) was administered to the tail veins of the mice, and their tumor volumes were measured. The evaluation values were calculated in the same way as in Test Example 8 to evaluate the antitumor effect.

[3] = inhibition of biotinylated vitronectin binding to immobilized αvβ3, read-out: IC50 value αv β3
[4] = inhibition of biotinylated vitronectin binding to immobilized αvβ5, read-out: IC50 value αvβ5

SMILES: Cc1cc(OCCCC(=O)NCCNC(=O)[C@H](CS(=O)(=O)O)NC(=O)[C@H](CS(=O)(=O)O)NC(=O)CN2CCN(CC(=O)O)CCN(CC(=O)O)CCN(CC(=O)O)CC2)cc(C)c1S(=O)(=O)N[C@@H](CNC(=O)c1ccc(CCc2ccc3c(n2)NCCC3)s1)C(=O)O [Compound X9, 2,2′,2″-(10-((4R,7R)-16-(4-(N—((S)-1-carboxy-2-(5-(2-(5,6,7,8-tetrahydro-1,8-naphthyridin-2-yl)ethyl)thiophene-2-carboxamido)ethyl)sulfamoyl)-3,5-dimethylphenoxy)-2,5,8,13-tetraoxo-4,7-bis(sulfomethyl)-3,6,9,12-tetraazahexadecyl)-1,4,7,10-tetraazacyclododecane-1,4,7-triyl)triacetic acid]
- IC50 (Integrin αvβ3; [3]): < 1 nM
- IC50 (Integrin αvβ5; [4]): 1 to 10 nM

SMILES: O=C(O)CN1CCN(CC(=O)O)CCN(CC(=O)N[C@@H](CS(=O)(=O)O)C(=O)N[C@@H](CS(=O)(=O)O)C(=O)NCCNC(=O)CCCOc2ccc(S(=O)(=O)N[C@@H](CNC(=O)c3ccc(CCc4ccc5c(n4)NCCC5)cc3)C(=O)O)cc2)CCN(CC(=O)O)CC1 [Compound Y13, 2,2′,2″-(10-((4R,7R)-16-(4-(N—((S)-1-carboxy-2-(4-(2-(5,6,7,8-tetrahydro-1,8-naphthyridin-2-yl)ethyl)benzamido)ethyl)sulfamoyl)phenoxy)-2,5,8,13-tetraoxo-4,7-bis(sulfomethyl)-3,6,9,12-tetraazahexadecyl)-1,4,7,10-tetraazacyclododecane-1,4,7-triyl)triacetic acid hexasodium salt]
- IC50 (Integrin αvβ3; [3]): < 1 nM
- IC50 (Integrin αvβ5; [4]): < 1 nM

SMILES: Cc1cc(OCCCC(=O)NCCNC(=O)C(CS(=O)(=O)O)NC(=O)CN2CCN3CCN4CCN(CC2)CC(=O)[O][Y]([O]C(=O)C3)[O]C(=O)C4)cc(C)c1S(=O)(=O)NC(CNC(=O)CCCCc1ccc2c(n1)NCCC2)C(=O)O (stereo not shown) [DD]
- IC50 (Integrin αvβ3): < 1 nM
- IC50 (Integrin αvβ5): < 1 nM

SMILES: Cc1cc(OCCCC(=O)NCCNC(=O)C(CS(=O)(=O)O)NC(=O)C(CS(=O)(=O)O)NC(=O)CN2CCN(CC(=O)[O-])CCN(CC(=O)[O-])CCN(CC(=O)[O-])CC2)cc(C)c1S(=O)(=O)NC(CNC(=O)c1ccc(CCc2ccc3c(n2)NCCC3)cc1)C(=O)O.[90Y+3] (stereo not shown) [[^90Y]-(A8)]
- Rate of inhibition ([1]; Dose 5.55 MBa): 69%
- Tumor volume 12 days after administration ([1]; Dose 5.55 MBa): 759 ± 344 mm^3
- Tumor volume At start of administration ([1]; Dose 5.55 MBa): 239 ± 89 mm^3
- The number of individuals having tumor regression ([1]; Dose 5.55 MBa): 0
- Rate of inhibition ([1]; Dose 11.1 MBa): 100%
- Tumor volume 12 days after administration ([1]; Dose 11.1 MBa): 199 ± 88 mm^3
- Tumor volume At start of administration ([1]; Dose 11.1 MBa): 243 ± 101 mm^3
- The number of individuals having tumor regression ([1]; Dose 11.1 MBa): 7
- Rate of inhibition ([1]; Dose 14.8 MBa): 100%
- Tumor volume 12 days after administration ([1]; Dose 14.8 MBa): 251 ± 112 mm^3
- Tumor volume At start of administration ([1]; Dose 14.8 MBa): 251 ± 110 mm^3
- The number of individuals having tumor regression ([1]; Dose 14.8 MBa): 6
- Rate of inhibition ([2]; 22 days after administration, above 100% indicated as 100%): 100%
- Tumor volume 22 days after administration ([2]; n 8, Mean ± SD): 123 ± 60 mm^3
- Tumor volume At start of administration ([2]; n 8, Mean ± SD, baseline): 201 ± 75 mm^3
- The number of individuals having tumor regression ([2]; of n 8): 6
